Entries after “also recorded” stand apart in the source; their conditions may differ.
Tests used:
hM3Dq = hM3Dq (Homo sapiens, UniProt P20309, A239G/Y149C); test: cell-based; assay type: cell-based; details: for hM3Dq potency decrease on replacing methyl with n-propyl: 4d vs 4a, 5d vs 5a; for Emax: read-out: hM3Dq Emax (relative to CNO)
[1] = molecular target: hM3 (native human M3 receptor) (Homo sapiens, UniProt P20309); test: cell-based; assay type: cell-based; details: for Emax: read-out: hM3 Emax (relative to acetylcholine)
5HT2A = 5HT2A (Homo sapiens, UniProt P28223); test: biochemical; assay type: binding; details: for Ki: Ki 5HT2A, radioligand binding
5HT2C = molecular target: T1, 5HT2C (Homo sapiens, UniProt P28335); test: 5HT2C radioligand binding assay; details: for Ki: Ki 5HT2C, radioligand binding
T1 sequence (P28335 33-458): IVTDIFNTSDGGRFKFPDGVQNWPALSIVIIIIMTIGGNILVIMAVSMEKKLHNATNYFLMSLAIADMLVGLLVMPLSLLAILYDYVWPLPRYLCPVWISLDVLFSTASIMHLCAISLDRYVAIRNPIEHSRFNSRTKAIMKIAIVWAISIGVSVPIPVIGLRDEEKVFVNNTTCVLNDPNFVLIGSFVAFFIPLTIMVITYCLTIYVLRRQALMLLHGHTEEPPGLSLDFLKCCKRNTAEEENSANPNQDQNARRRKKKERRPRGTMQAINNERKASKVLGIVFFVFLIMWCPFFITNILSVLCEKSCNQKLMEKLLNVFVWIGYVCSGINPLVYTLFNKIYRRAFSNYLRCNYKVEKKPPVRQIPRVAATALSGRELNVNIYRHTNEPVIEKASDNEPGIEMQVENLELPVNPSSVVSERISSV

α1A = molecular target: T2, α1A (Homo sapiens, UniProt P35348); test: α1A radioligand binding assay; details: for Ki: Ki α1A, radioligand binding
T2 sequence (P35348 1-466): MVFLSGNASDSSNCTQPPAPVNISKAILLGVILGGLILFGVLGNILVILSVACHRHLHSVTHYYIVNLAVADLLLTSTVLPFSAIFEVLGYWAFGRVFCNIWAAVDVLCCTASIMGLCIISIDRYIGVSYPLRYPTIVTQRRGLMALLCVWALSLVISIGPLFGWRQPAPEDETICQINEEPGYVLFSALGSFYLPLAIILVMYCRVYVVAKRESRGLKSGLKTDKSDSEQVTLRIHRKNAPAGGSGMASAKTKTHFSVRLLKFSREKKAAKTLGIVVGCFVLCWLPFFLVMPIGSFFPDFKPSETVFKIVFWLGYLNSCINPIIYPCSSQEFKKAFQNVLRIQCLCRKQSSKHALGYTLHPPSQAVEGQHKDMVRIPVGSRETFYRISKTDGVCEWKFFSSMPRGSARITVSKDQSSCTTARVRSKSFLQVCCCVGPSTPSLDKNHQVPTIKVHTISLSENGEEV

H1 = H1 (Homo sapiens, UniProt P35367); test: biochemical; assay type: binding; details: for Ki: Ki H1, radioligand binding
Sequence of H1 (P35367 whole entry): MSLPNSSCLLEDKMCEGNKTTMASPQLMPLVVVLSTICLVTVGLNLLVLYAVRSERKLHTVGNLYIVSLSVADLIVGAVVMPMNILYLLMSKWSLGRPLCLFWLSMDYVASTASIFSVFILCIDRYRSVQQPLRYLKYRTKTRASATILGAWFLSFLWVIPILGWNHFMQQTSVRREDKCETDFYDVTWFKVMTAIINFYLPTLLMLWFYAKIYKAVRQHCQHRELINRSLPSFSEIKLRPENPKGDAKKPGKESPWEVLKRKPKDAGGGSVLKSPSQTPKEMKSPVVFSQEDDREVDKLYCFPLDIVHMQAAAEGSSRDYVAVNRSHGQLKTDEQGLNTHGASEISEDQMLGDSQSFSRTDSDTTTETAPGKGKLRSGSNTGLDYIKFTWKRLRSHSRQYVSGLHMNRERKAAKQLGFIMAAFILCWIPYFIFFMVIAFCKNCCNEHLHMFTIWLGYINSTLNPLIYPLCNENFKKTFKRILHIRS

Sequence of hM3 (native human M3 receptor) (P20309 whole entry): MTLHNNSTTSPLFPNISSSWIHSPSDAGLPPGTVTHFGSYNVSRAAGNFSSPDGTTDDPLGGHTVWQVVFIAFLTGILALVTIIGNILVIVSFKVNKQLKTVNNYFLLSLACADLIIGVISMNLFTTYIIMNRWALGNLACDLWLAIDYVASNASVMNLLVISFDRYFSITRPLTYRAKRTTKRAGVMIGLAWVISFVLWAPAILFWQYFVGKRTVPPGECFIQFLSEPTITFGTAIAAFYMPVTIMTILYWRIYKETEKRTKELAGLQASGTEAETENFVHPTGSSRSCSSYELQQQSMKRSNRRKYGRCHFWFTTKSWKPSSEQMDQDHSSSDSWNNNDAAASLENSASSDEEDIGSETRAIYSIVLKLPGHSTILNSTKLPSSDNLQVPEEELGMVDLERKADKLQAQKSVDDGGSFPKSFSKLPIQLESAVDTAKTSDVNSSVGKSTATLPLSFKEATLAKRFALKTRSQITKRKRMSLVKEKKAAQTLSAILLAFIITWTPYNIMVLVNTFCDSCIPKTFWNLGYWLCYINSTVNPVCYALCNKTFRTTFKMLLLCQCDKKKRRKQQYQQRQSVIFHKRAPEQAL
Sequence of 5HT2A (P28223 whole entry, species assumed): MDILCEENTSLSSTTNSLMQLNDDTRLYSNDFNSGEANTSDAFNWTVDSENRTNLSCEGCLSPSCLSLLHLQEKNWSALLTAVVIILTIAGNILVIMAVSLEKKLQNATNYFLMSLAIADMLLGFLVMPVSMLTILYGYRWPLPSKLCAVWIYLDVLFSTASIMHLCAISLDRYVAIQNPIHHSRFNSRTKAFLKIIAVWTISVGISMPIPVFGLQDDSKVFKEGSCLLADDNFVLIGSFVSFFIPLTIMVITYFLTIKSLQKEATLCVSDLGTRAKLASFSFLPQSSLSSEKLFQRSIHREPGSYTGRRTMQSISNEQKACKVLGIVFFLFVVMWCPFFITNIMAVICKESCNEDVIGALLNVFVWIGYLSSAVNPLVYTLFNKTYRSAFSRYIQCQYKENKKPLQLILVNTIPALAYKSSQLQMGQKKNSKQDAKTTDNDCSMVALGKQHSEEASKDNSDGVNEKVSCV
Sequence of hM3Dq (P20309 whole entry Y149C/A239G): as the sequence (P20309 whole entry) above, with Y149C, A239G counted along it

Row | Compound | EC50 (hM3Dq) | Emax (hM3Dq) | EC50 [1] | agonist activity for hM3Dq (in words) (hM3Dq) | agonist activity for hM3 (in words) [1] | also measured
1 | CCC[N+]1([O-])CCN(C2=Nc3cc(Cl)ccc3Nc3ccccc32)CC1 [Compound 5d, 4-(8-Chloro-5H-dibenzo[b,e][1,4]diazepin-11-yl)-1-propylpiperazine N-oxide] | 740 nM | 79% | > 30000 nM | – | – | hM3Dq potency decrease on replacing methyl with n-propyl (hM3Dq): ~100 fold
2 | CN1CCN(C2=Nc3ccccc3Cc3ccccc32)CC1 [perlapine, reference compound] | – | – | – | – | – | selectivity for hM3Dq over hM3 [1]: > 10 000 fold
3 | CC(=O)N1CCN(C2=Nc3cc(Cl)ccc3Nc3ccccc32)CC1 [Compound 12, 1-(4-(8-Chloro-5H-dibenzo[b,e][1,4]diazepin-11-yl)piperazin-1-yl)ethanone] | > 30000 nM | – | > 30000 nM | did not display any agonist activity | did not activate | –
4 | CC[N+]1([O-])CCN(C2=Nc3cc(Cl)ccc3Nc3ccccc32)CC1 [Compound 5b, 4-(8-Chloro-5H-dibenzo[b,e][1,4]diazepin-11-yl)-1-ethylpiperazine N-oxide] | 19 nM | 50% | > 30000 nM | – | – | Ki (5HT2A): 1900 nM; Ki (5HT2C): 5100 nM; Ki (α1A): > 1000 nM; selectivity for hM3Dq over H1 (H1): about 8 fold; Ki (H1): 160 nM
5 | CCCN1CCN(C2=Nc3cc(Cl)ccc3Nc3ccccc32)CC1 [Compound 4d, 8-Chloro-11-(4-propylpiperazin-1-yl)-5H-dibenzo[b,e][1,4]diazepine] | 71 nM | 50% | > 30000 nM | – | – | hM3Dq potency decrease on replacing methyl with n-propyl (hM3Dq): approximately 70 fold
6 | CCN1CCN(C2=Nc3ccccc3Nc3ccccc32)CC1 [Compound 22, 11-(4-Ethylpiperazin-1-yl)-5H-dibenzo[b,e][1,4]diazepine] | – | 81% | – | – | did not exhibit any agonist activity | –
7 | c1ccc2c(c1)N=C(N1CCNCC1)c1ccccc1N2 [Compound 21, 11-(Piperazin-1-yl)-5H-dibenzo[b,e][1,4]diazepine] | 1.7 nM | 100% | – | – | do not activate; also recorded: inactive | Emax [1]: ~20%; selectivity for hM3Dq over 5HT2A (5HT2A): 40 fold; Ki (5HT2A): 66 nM; selectivity for hM3Dq over 5HT2C (5HT2C): 100 fold; Ki (5HT2C): 170 nM; selectivity for hM3Dq over α1A (α1A): 165 fold; Ki (α1A): 280 nM; selectivity for hM3Dq over H1 (H1): 3.5 fold; Ki (H1): 6 nM
8 | O=C1NC(=O)C2(CCN(C3=Nc4cc(Cl)ccc4Nc4ccccc43)CC2)N1 [Compound 9, 8-(8-Chloro-5H-dibenzo[b,e][1,4]diazepin-11-yl)-1,3,8-triazaspiro[4.5]decane-2,4-dione] | > 30000 nM | – | > 30000 nM | did not activate | did not activate | –
9 | CC(C)[N+]1([O-])CCN(C2=Nc3cc(Cl)ccc3Nc3ccccc32)CC1 [Compound 5c, 4-(8-Chloro-5H-dibenzo[b,e][1,4]diazepin-11-yl)-1-isopropylpiperazine N-oxide] | 190 nM | 45% | > 30000 nM | – | – | Ki (5HT2A): 5200 nM; Ki (5HT2C): 6700 nM; selectivity for hM3Dq over α1A (α1A): about 2 fold; Ki (α1A): 320 nM; Ki (H1): 6200 nM
10 | CC[N+]1([O-])CCN(C2=Nc3ccccc3Nc3ccccc32)CC1 [Compound 23, 4-(5H-Dibenzo[b,e][1,4]diazepin-11-yl)-1-ethylpiperazine N-oxide] | 220 nM | 59% | > 30000 nM | – | did not exhibit any agonist activity | fold less potent for hM3Dq than compound 5b (hM3Dq): about 10 fold
11 | C[N+]1(C)CCN(C2=Nc3cc(Cl)ccc3Nc3ccccc32)CC1.[I-] [Compound 6, 4-(8-Chloro-5H-dibenzo[b,e][1,4]diazepin-11-yl)-1,1-dimethylpiperazin-1-ium iodide] | 0.069 nM | 100% | 9.5 nM | – | – | fold more potent than compound 4a (clozapine) at hM3Dq (hM3Dq): about 15 fold; selectivity for hM3Dq over hM3 [1]: > 100 fold; Emax [1]: 92%
12 | CC(=O)OCC[N+](C)(C)C [ACh, acetylcholine, reference compound] | – | – | – | does not activate | potent hM3 agonist | –
13 | CC(C)N1CCN(C2=Nc3cc(Cl)ccc3Nc3ccccc32)CC1 [Compound 4c, 8-Chloro-11-(4-isopropylpiperazin-1-yl)-5H-dibenzo[b,e][1,4]diazepine] | 13 nM | 45% | > 30000 nM | – | – | Ki (5HT2C): 17 nM; Ki (α1A): 37 nM; Ki (H1): 4.6 nM
14 | NC1(C(=O)O)CCN(C2=Nc3cc(Cl)ccc3Nc3ccccc32)CC1 [Compound 10, 4-Amino-1-(8-chloro-5H-dibenzo[b,e][1,4]diazepin-11-yl)piperidine-4-carboxylic acid] | > 30000 nM | – | > 30000 nM | did not activate | did not activate | –
15 | O=C1CN(C2=Nc3cc(Cl)ccc3Nc3ccccc32)CCN1 [Compound 7, 4-(8-Chloro-5H-dibenzo[b,e][1,4]diazepin-11-yl)piperazin-2-one] | > 30000 nM | – | > 30000 nM | did not display any agonist activity | did not activate | –
16 | CS(=O)(=O)N1CCN(C2=Nc3cc(Cl)ccc3Nc3ccccc32)CC1 [Compound 14, 8-Chloro-11-(4-(methylsulfonyl)piperazin-1-yl)-5H-dibenzo[b,e][1,4]diazepine] | > 30000 nM | – | > 30000 nM | did not display any agonist activity | did not activate | –
